Literature values, collected in patent publication US20230148652A1, “ORAL PRODUCTS WITH NICOTINE-POLYMER COMPLEX” (NICOVENTURES TRADING LIMITED, priority 2021, published 2023).

How the values were obtained:
[1] = partition between octanol and water

Molecule	solubility	chemical stability (when isolated)	logP [1]
CC(/C=C/C=C(C)/C=C/C(=O)O)=C\C=C\C=C(C)\C=C\C=C(C)\C=C\C(=O)O (stereo in doubt) [norbixin, (2E,4E,6E,8E,10E,12E,14E,16E,18E)-4,8,13,17-tetramethylicosa-2,4,6,8,10,12,14,16,18-nonaenedioic acid]	water soluble		
COC(=O)/C=C/C(C)=C\C=C\C(C)=C\C=C\C=C(C)\C=C\C=C(C)\C=C\C(=O)O [bixin, (2E,4E,6E,8E,10E,12E,14E,16Z,18E)-20-methoxy-4,8,13,17-tetramethyl-20-oxoicosa-2,4,6,8,10,12,14,16,18-nonaenoic acid]	soluble in fats and alcohols but insoluble in water	chemically unstable when isolated	
CC(C)[C@@H]1CC[C@@H](C)C[C@H]1OC(=O)CCC(=O)O [monomenthyl succinate]			3
ethyl benzoic acid			2.9
isopropyl benzoic acid			3.5
